In patent publication US20250223412A1, “BLOWING AGENT, FOAMING RESIN COMPOSITION, POLYURETHANE UREA RESIN FOAM, AND PRODUCTION METHOD FOR POLYURETHANE UREA FOAM” (MITSUBISHI GAS CHEMICAL COMPANY, INC., priority 2022, published 2025):

Experiment: Maximum carbon dioxide (CO2) release temperature of amine compound (DSC after CO2 absorption from air)
Assay type: physicochemical
Conditions: amine compound with CO2 absorbed (air, 23° C., 50% RH, 24 hours); heating 10° C./minute, 23 to 250° C., nitrogen
Description: A carbon dioxide detector and a Petri dish were placed in an openable desiccator (inner dimension: 370 mm×260 mm×272 mm). Subsequently the amine compound (5 mmol) was added to the Petri dish in the desiccator and the door was immediately closed to leave the amine compound to stand in the desiccator in an air environment at 23° C. and 50% RH for 24 hours. The initial concentration of carbon dioxide was adjusted to about 400 ppm.
Then the amine compound was taken out of the desiccator to give an amine compound with carbon dioxide absorbed. The maximum carbon dioxide release temperature of the amine compound with carbon dioxide absorbed was measured by subjecting the amine compound to DSC as described below. First, differential scanning calorimetry of the amine compound was performed under conditions of a temperature range of 23 to 250° C., a heating rate of 10° C./minute and a nitrogen atmosphere using a differential thermogravimeter (product name DTG-60 made by Shimadzu Corporation). The temperature at which the amount of heat absorbed due to the desorption of carbon dioxide was the maximum was calculated from the DSC curve obtained, and the temperature was determined as the maximum carbon dioxide release temperature of the amine compound.

Structure (SMILES) | Maximum CO2 release temperature [°C]
CC1(C)CC(N)CC(C)(CN)C1 (stereo not shown) [IPDA, isophoronediamine] | 114.4
NCc1cccc(CN)c1 [MXDA, metaxylylenediamine] | 135.5
NCC1CCCC(CN)C1 (stereo not shown) [1,3-BAC, 1,3-bis(aminomethyl)cyclohexane] | 125.7
NCCN [Ethylenediamine, ethylenediamine] | 103.4
